# Experimental data from ChEMBL document CHEMBL1201862, “PubChem BioAssay data set” (2004).
#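 Cultured in 96-well plates, cells were exposed to test compound for 48 hours across five concentrations. GI50 = concentration required for 50% inhibition of growth.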 Calls of active or inactive are those of the source. Cut-off read from the data, not from the text of the source: active = GI50 up to about 1.1 µM and inactive = higher.
# Experiments:
# Test in all cases: growth of human tumour cells (NCI), 48 h
# NCI/ADR-RES = system: NCI/ADR-RES
# SR = system: SR
# 786-0 = system: 786-0
# UO-31 = system: UO-31
# CCRF-CEM = system: CCRF-CEM
# RXF 393 = system: RXF 393
# BT-549 = system: BT-549
# NCI-H460 = system: NCI-H460
# TK-10 = system: TK-10
# KM12 = system: KM12
# CAKI-1 = system: CAKI-1
# HCC 2998 = system: HCC 2998
# SF-268 = system: SF-268
# SF-295 = system: SF-295
# HCT-116 = system: HCT-116
# RPMI-8226 = system: RPMI-8226
# HCT-15 = system: HCT-15
# EKVX = system: EKVX
# M14 = system: M14
# SNB-75 = system: SNB-75
# COLO 205 = system: COLO 205
# SK-MEL-28 = system: SK-MEL-28
# DU-145 = system: DU-145
# SW-620 = system: SW-620
# A549 = system: A549
# SNB-19 = system: SNB-19
# MCF7 = system: MCF7
# OVCAR-3 = system: OVCAR-3
# OVCAR-8 = system: OVCAR-8
# OVCAR-5 = system: OVCAR-5
# SK-MEL-2 = system: SK-MEL-2
# MDA-MB-435 = system: MDA-MB-435
# PC-3 = system: PC-3
# OVCAR-4 = system: OVCAR-4
# SN12C = system: SN12C
# MDA-MB-231 = system: MDA-MB-231
# A498 = system: A498
# SK-MEL-5 = system: SK-MEL-5
# UACC-62 = system: UACC-62
# LOX IMVI = system: LOX IMVI
# NCI-H226 = system: NCI-H226
# NCI-H522 = system: NCI-H522
# Hs-578T = system: Hs-578T
# U-251 = system: U-251
# MOLT-4 = system: MOLT-4
# UACC-257 = system: UACC-257
# HT-29 = system: HT-29
# T47D = system: T47D
# MDA-N = system: MDA-N
# HOP-62 = system: HOP-62
# SK-OV-3 = system: SK-OV-3
# ACHN = system: ACHN
# IGROV-1 = system: IGROV-1
# Malme-3M = system: Malme-3M
# HL-60 = system: HL-60
# HOP-92 = system: HOP-92
# K562 = system: K562
# SF-539 = system: SF-539
# NCI-H23 = system: NCI-H23
compound,measurement,setting,value
Cc1nc2ccc(/N=N/N(C)C)cc2[nH]1,GI50,NCI/ADR-RES,> 100000 nM (inactive)
same,GI50,SR,> 100000 nM (inactive)
same,GI50,786-0,> 100000 nM (inactive)
same,GI50,UO-31,> 100000 nM (inactive)
same,GI50,CCRF-CEM,98900 nM (inactive)
same,GI50,RXF 393,> 100000 nM (inactive)
same,GI50,BT-549,86500 nM (inactive)
same,GI50,NCI-H460,> 100000 nM (inactive)
same,GI50,TK-10,> 100000 nM (inactive)
same,GI50,KM12,> 100000 nM (inactive)
same,GI50,CAKI-1,> 100000 nM (inactive)
same,GI50,HCC 2998,> 100000 nM (inactive)
same,GI50,SF-268,> 100000 nM (inactive)
same,GI50,SF-295,> 100000 nM (inactive)
same,GI50,HCT-116,> 100000 nM (inactive)
same,GI50,RPMI-8226,> 100000 nM (inactive)
same,GI50,HCT-15,> 100000 nM
same,GI50,EKVX,> 100000 nM (inactive)
same,GI50,M14,> 100000 nM (inactive)
same,GI50,SNB-75,> 100000 nM (inactive)
same,GI50,COLO 205,> 100000 nM (inactive)
same,GI50,SK-MEL-28,> 100000 nM (inactive)
same,GI50,DU-145,> 100000 nM (inactive)
same,GI50,SW-620,> 100000 nM (inactive)
same,GI50,A549,> 100000 nM (inactive)
same,GI50,SNB-19,> 100000 nM (inactive)
same,GI50,MCF7,> 100000 nM (inactive)
same,GI50,OVCAR-3,> 100000 nM (inactive)
same,GI50,OVCAR-8,> 100000 nM (inactive)
same,GI50,OVCAR-5,> 100000 nM (inactive)
same,GI50,SK-MEL-2,> 100000 nM (inactive)
same,GI50,MDA-MB-435,> 100000 nM (inactive)
same,GI50,PC-3,> 100000 nM (inactive)
same,GI50,OVCAR-4,> 100000 nM (inactive)
same,GI50,SN12C,> 100000 nM (inactive)
same,GI50,MDA-MB-231,> 100000 nM (inactive)
same,GI50,A498,> 100000 nM (inactive)
same,GI50,SK-MEL-5,> 100000 nM (inactive)
same,GI50,UACC-62,> 100000 nM (inactive)
same,GI50,LOX IMVI,> 100000 nM (inactive)
same,GI50,NCI-H226,> 100000 nM (inactive)
same,GI50,NCI-H522,> 100000 nM (inactive)
same,GI50,Hs-578T,> 100000 nM (inactive)
same,GI50,U-251,> 100000 nM (inactive)
same,GI50,MOLT-4,> 100000 nM (inactive)
same,GI50,UACC-257,> 100000 nM (inactive)
same,GI50,HT-29,> 100000 nM (inactive)
same,GI50,T47D,> 100000 nM (inactive)
same,GI50,MDA-N,> 100000 nM (inactive)
same,GI50,HOP-62,> 100000 nM (inactive)
same,GI50,SK-OV-3,> 100000 nM (inactive)
same,GI50,ACHN,> 100000 nM (inactive)
same,GI50,IGROV-1,> 100000 nM (inactive)
same,GI50,Malme-3M,> 100000 nM (inactive)
COC(=O)C12Oc3ccc(-c4ccc5c(c4O)C(O)=C4C(=O)CC(C)C(O)C4(C(=O)OC)O5)c(O)c3C(O)=C1C(=O)CC(C)C2O (configuration not stated),GI50,NCI/ADR-RES,485 nM (active)
same,GI50,SR,23.4 nM (active)
same,GI50,786-0,314 nM (active)
same,GI50,UO-31,156 nM (active)
same,GI50,CCRF-CEM,25.5 nM (active)
same,GI50,HL-60,102 nM (active)
same,GI50,RXF 393,87.7 nM (active)
same,GI50,BT-549,262 nM (active)
same,GI50,NCI-H460,42.1 nM (active)
same,GI50,TK-10,231 nM (active)
same,GI50,KM12,55.5 nM (active)
same,GI50,CAKI-1,346 nM (active)
same,GI50,SF-268,84.3 nM (active)
same,GI50,SF-295,211 nM (active)
same,GI50,HCT-116,126 nM (active)
same,GI50,RPMI-8226,49.4 nM (active)
same,GI50,HCT-15,216 nM
same,GI50,EKVX,80.5 nM (active)
same,GI50,M14,104 nM (active)
same,GI50,SNB-75,241 nM (active)
same,GI50,COLO 205,65.6 nM (active)
same,GI50,SK-MEL-28,39.7 nM (active)
same,GI50,DU-145,547 nM (active)
same,GI50,SW-620,88.9 nM (active)
same,GI50,A549,70.2 nM (active)
same,GI50,SNB-19,583 nM (active)
same,GI50,HOP-92,466 nM (active)
same,GI50,MCF7,151 nM (active)
same,GI50,OVCAR-3,71.9 nM (active)
same,GI50,OVCAR-8,94 nM (active)
same,GI50,OVCAR-5,119 nM (active)
same,GI50,SK-MEL-2,79.8 nM (active)
same,GI50,MDA-MB-435,63.4 nM (active)
same,GI50,PC-3,76.4 nM (active)
same,GI50,OVCAR-4,467 nM (active)
same,GI50,SN12C,121 nM (active)
same,GI50,MDA-MB-231,630 nM (active)
same,GI50,A498,544 nM (active)
same,GI50,SK-MEL-5,39.4 nM (active)
same,GI50,UACC-62,70.8 nM (active)
same,GI50,K562,75.3 nM (active)
same,GI50,SF-539,55 nM (active)
same,GI50,LOX IMVI,151 nM (active)
same,GI50,NCI-H226,416 nM (active)
same,GI50,NCI-H522,30.4 nM (active)
same,GI50,Hs-578T,135 nM (active)
same,GI50,U-251,52.5 nM (active)
same,GI50,MOLT-4,64.1 nM (active)
same,GI50,UACC-257,73 nM (active)
same,GI50,HT-29,49.5 nM (active)
same,GI50,T47D,250 nM (active)
same,GI50,MDA-N,125 nM (active)
same,GI50,HOP-62,64.4 nM (active)
same,GI50,SK-OV-3,103 nM (active)
same,GI50,ACHN,153 nM (active)
same,GI50,IGROV-1,104 nM (active)
same,GI50,Malme-3M,21.7 nM (active)
same,GI50,NCI-H23,61.5 nM (active)
